From US12606540B2, “Triazolone compound” (MEDSHINE DISCOVERY INC., priority 2020, dated 2026)
Like-named read-outs stand apart in the source and are kept apart here.

Key:
MDR1 (P-glycoprotein) = assay: Permeability evaluation on MDR1-MDCK II cell line; conditions: dog, MDCK-MDR1, pH 7.4
[1] = tested on: dextran sulfate sodium (DSS) induced colitis model; assay: DSS induced colitis model in mice; format: in vivo, C57BL/6 mice
Experimental: • 6.1 Purpose of the study: In order to verify the effect of the test sample on dextran sulfate sodium (DSS) induced colitis model in […] mice. • 6.2 Experimental design for inducing colitis: The mice in the vehicle and administration groups were administered on Day 0 for 1 h, and the mice freely drank water containing 3% DSS until Day 7, after Day 8, the mice were euthanized and their colon was taken for analysis. C57BL/6 mice, 8 weeks of age, 18-20 g, female. Administration was started on Day 0 to Day 7 for both the vehicle and administration groups. • 6.3 Drinking water containing DSS: The appropriate amount of DSS powder was dissolved in autoclaved drinking water and configured as a 3% DSS solution. • 6.4 Administration: Animals of group 1 were given the vehicle, animals of group 2 were given compound 5, and animals of group 3 were given normal drinking water and the vehicle, the vehicle was 5% DMSO/10% Solutol solution/0.2% Tween80/84.8% aqueous solution, with twice a day. 6.5 Measurement 6.5.1 Weight
Recording frequency was once a day, Days 0 to 8.
The recording frequency is once a day, Days 0 to 8, and is rated at 4 grades according to the following criteria: • Weight change (0, ≤1%; 1, 1-5%; 2, 6-10%; 3, 11-20%; 4, >20%). • Hematochezia (0, negative; 1, weakly positive for occult blood; 2, positive for occult blood; 3, significant hematochezia; 4, massive hematochezia) • Stool score (0, normal; 1, soft stool; 2, flaccid stool; 3, loose stool; 4, diarrhea)
The daily disease index is obtained by adding the scores of the above three parts.
On Day 8, all animals received an overdose of CO2 and were executed by cervical dislocation. The abdominal cavity was cut open and the colon of the mice was taken, the tissue around the colon was removed, and the longitudinal length from the ileocecum to the anus was measured and the whole was photographed. The colon was dissected, the intestinal contents were cleaned, weighed separately, and the stool consistency was recorded.
The colonic tissue was divided into two longitudinally and one was fixed in 10% neutral paraformaldehyde in the form of “Swiss” rolls.
The experimental data were expressed as mean±standard error (S.E.M.). Data were adopted by GraphPad Prism and analyzed by ANOVA statistical method. P<0.05 was considered as statistical difference.

DHODH enzyme = DHODH enzyme (Homo sapiens, UniProt Q02127); assay: DHODH enzyme inhibitory activity in vitro (resazurin fluorescence); format: biochemical; conditions: 5 nM DHODH, 15 μM L-DHO, 80 μM Resazurin
Excerpt: The DHODH inhibitory activity of the compounds was detected by the following experimental method, and the experimental results are as shown in Table 1.
DHODH uses flavin mononucleotide FMN to catalyze the oxidation of dihydrooratic acid DHO to produce oratic acid, while the re-oxidation of FMN requires the participation of coenzyme CoQ. In the experiment of detecting the DHODH enzyme activity, CoQ was replaced by Resazurin dye as the final electron acceptor in the enzyme activity reaction. Resazurin solution is blue, and the resorufin generated after reduction has red fluorescence, and the fluorescence signal can be detected under the 535 nm of excitation wavelength and the 590 nm of emission wavelength. The components of the reaction buffer used in the experiment were 100 mM Hepes pH 7.0, 150 mM NaCl, 0.3% CHAPS, 0.5 mg/mL BSA, 0.1 μM FMN and 1% DMSO. The final concentration of DHODH enzyme in the reaction system was 5 nM, and the final concentration of substrate L-DHO was 15 μM, the final concentration of indicator Resazurin was 80 μM. The components of the reaction stop buffer were 100 mM Hepes pH 7.0 and 5 mM Orotate. The specific method was as follows: 2-fold final concentration of the DHODH enzyme solution was mixed with the compound, incubated at room temperature for 20 min, 2-fold final concentration of the substrate mixture solution of L-DHO and resazurin was added and reacted, incubated at room temperature away from light for 45 min. Then the reaction was stopped by adding 2-fold final concentration of the reaction stop buffer to the reaction system, and incubated at room temperature for 10 min, the fluorescence signal of the reaction system was detected with EnVision under the condition of Ex/Em=535/590 nm.

[2] = tested on: influenza virus A/Weiss/43 (H1N1); assay: Influenza virus cytopathic effect (CPE) experiment in MDCK cells; format: cell-based; conditions: unidentified influenza virus, H1N1, 120 h, 5 days incubation, CCK8
[3] = Pharmacokinetic evaluation in mice (IV and PO); format: in vivo, female Balb/c mice; conditions: for MRT last: read-out: MRT0-last
Experimental: Experiment process: 0.04 mg/mL of a clarified solution of the test compound in 5% DMSO/10% Solutol solution/85% water was injected into female Balb/c mice (overnight fasting, 7-9 weeks of age) via tail vein, with dosage of 0.2 mg/kg. 0.1 mg/mL of the test compound in 5% DMSO/10% Solutol solution/0.2% Tween80/84.8% water was administered by gavage to female Balb/c mice (overnight fasting, 7-9 weeks of age), with dosage of 1 mg/kg. About 30 μL of blood was collected from the jugular vein at 0.0833, 0.25, 0.5, 1.0, 2.0, 4.0, 8.0, 10 and 24 h and from the tail vein at 0.25, 0.5, 1.0, 2.0, 4.0, 8.0 and 24 h after administration for both groups of animals, and were placed in anticoagulation tubes with EDTA-K2, and the blood was separated by centrifugation to obtain plasma. Plasma concentrations were detected by LC-MS/MS, and relevant pharmacokinetic parameters were calculated using WinNonlin™ Version 6.3 (Pharsight, Mountain View, CA) pharmacokinetic software with a non-compartmental model linear logarithmic trapezoid method.

[4] = 5 mpk/BID, compared with the modeling group, p<0.0001
[5] = female, Balb/c, mouse, plasma, IV 0.2 mg/kg
[6] = female, Balb/c, mouse, plasma, PO 1 mg/kg

Sequence of DHODH enzyme (Q02127 whole entry): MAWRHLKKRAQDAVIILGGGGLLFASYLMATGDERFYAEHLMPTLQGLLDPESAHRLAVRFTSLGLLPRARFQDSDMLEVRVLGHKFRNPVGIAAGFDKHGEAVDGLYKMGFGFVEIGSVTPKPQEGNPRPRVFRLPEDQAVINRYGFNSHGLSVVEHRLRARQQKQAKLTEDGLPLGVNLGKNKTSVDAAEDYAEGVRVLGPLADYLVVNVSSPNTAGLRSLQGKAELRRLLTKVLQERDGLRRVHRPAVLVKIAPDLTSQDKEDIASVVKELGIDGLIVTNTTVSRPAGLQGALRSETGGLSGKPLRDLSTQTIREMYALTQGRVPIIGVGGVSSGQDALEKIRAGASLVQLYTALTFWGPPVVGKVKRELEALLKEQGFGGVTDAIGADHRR

Question: What does the source list for CCn1c(CO)nn(-c2cc(O[C@@H](C)C(F)(F)F)c(/C(F)=C/c3ncccc3Cl)cc2F)c1=O [Compound 5]?
Answer: Papp A→B at 150 min, 2 μM (MDR1 (P-glycoprotein)): 13.3 ×10⁻⁶ cm/s; Papp B→A at 150 min, 2 μM (MDR1 (P-glycoprotein)): 18.2 ×10⁻⁶ cm/s; Papp at 150 min, 2 μM (MDR1 (P-glycoprotein)): > 5.5 ×10⁻⁶ cm/s; efflux ratio at 150 min, 2 μM (MDR1 (P-glycoprotein)): 1.37; Level of inflammatory factor TNF-α in the colonic mucosa ([1]; 5 mg/kg BID, Day 8, p<0.05 compared with the modeling group): effectively reduces; Colon length (colonic shortening) at the experimental endpoint [1, 4]: significantly improves; Colonic density at the experimental endpoint [1, 4]: significantly improves the inflammation-induced increase of colonic density; DAI (Disease Activity Index) score ([1]; compared to the modeling group, administration for 6 days, Day 8 p<0.0001): significantly improved; Animal weight change ([1]; compared with the modeling group, p<0.01 on Day 8, twice a day): significantly slow down the weight loss of mice; IC50 (DHODH enzyme): 3.5 nM; EC50 [2]: 70 nM; Tlast ([3]; IV 0.2 mg/kg): 24.0 h; F ([3]; PO 1 mg/kg): 95.8%; Tlast ([3]; PO 1 mg/kg): 24.0 h; AUC(0-inf) [3, 5]: 1.51 µM·h; AUC(0-t) [3, 5]: 1.43 µM·h; clearance [3, 5]: 4.38 mL/min/kg; half-life [3, 5]: 5.83 h; MRT last [3, 5]: 6.24 h; Vd ([3]; female, Balb/c, mouse, plasma, IV 0.2 mg/kg, read-out: VdSS): 2.02 L/kg; AUC(0-inf) [3, 6]: 7.21 µM·h; AUC(0-t) [3, 6]: 6.87 µM·h; Tmax [3, 6]: 2 h; half-life [3, 6]: 5.36 h; MRT last [3, 6]: 6.99 h; C0 ([3]; female, Balb/c, mouse, IV 0.2 mg/kg, plasma): 354 nM; Cmax ([3]; female, Balb/c, mouse, PO 1 mg/kg, plasma): 794 nM
